Read-outs that look alike come from different tables or passages of the source.
Assays:
F1F0-ATPase = target: T1, F1F0-ATPase (Bos taurus, UniProt P13621); assay: Inhibition of F1F0-ATPase activity in synthesizing ATP; type: biochemical; conditions: inhibition of ATP synthesis by F1F0-ATPase; read-out: ATP Syn IC50
T1 construct: from tissue

Ramos cells = assay: Cytotoxicity in Ramos cells; type: cell-based; conditions: cytotoxicity in Ramos cells, read-out: Ramos Cell EC50

SMILES | IC50 (F1F0-ATPase) | EC50 (Ramos cells; Homo sapiens) | EC50 (Ramos cells)
O=C(/N=C(\Nc1cc(C(F)(F)F)[nH]n1)NC1CCCC1)c1cccc(C(F)(F)F)c1 [Compound A-75] | < 10 µM | < 10 µM | –
CC(C)CN/C(=N/C(=O)c1ccc(F)c(F)c1)Nc1cc(-c2ccc(Cl)cc2)n[nH]1 [Compound A-377] | < 10 µM | – | < 10 µM
O=C(/N=C(/NCc1ccc(F)cc1Cl)Nc1cc(C(F)(F)F)[nH]n1)c1ccc(C(F)(F)F)cc1 [Compound A-18] | < 10 µM | < 10 µM | –
O=C(/N=C(\Nc1cc(C(F)(F)F)[nH]n1)NC1(CO)CCCC1)c1ccc(F)cc1 [Compound A-415] | < 10 µM | – | > 10 µM
CC(C)CNC(=NC(=O)c1cccc(C#N)c1)Nc1cc(-c2ccc(Cl)cc2)n[nH]1 [Compound A-303] | < 10 µM | < 10 µM | –
O=C(/N=C(/Nc1cc(F)cc(Cl)c1)Nc1cc(C2CCC2)[nH]n1)c1ccc(Cl)c(F)c1 [Compound A-147] | < 10 µM | – | < 10 µM
O=C(/N=C(\Nc1cc(-c2ccc(F)cc2)n[nH]1)NC1CCCC1)c1cccc(F)c1 [Compound A-388] | < 10 µM | – | < 10 µM
CC(C)(C)NC(=NC(=O)c1cccc(F)c1)Nc1cc(-c2ccc(Cl)cc2)n[nH]1 [Compound A-133] | < 10 µM | < 10 µM | –
CC(C)OCCCN/C(=N/C(=O)c1cccc(C#N)c1)Nc1cc(-c2ccc(Cl)cc2)n[nH]1 [Compound A-301] | < 10 µM | – | < 10 µM
O=C(N=C(Nc1cc(-c2ccc(F)cc2)n[nH]1)NC1CCC1)c1ccc(F)c(F)c1 [Compound A-259] | < 10 µM | < 10 µM | –
O=C(/N=C(/NCc1ccc(F)cc1Cl)Nc1cc(-c2cccc(Cl)c2)n[nH]1)c1ccc(F)c(F)c1 [Compound A-477] | < 10 µM | – | > 10 µM
COC[C@@H](C)NC(=NC(=O)c1ccc(F)cc1)Nc1cc(-c2ccc(F)cc2)n[nH]1 [Compound A-500] | < 10 µM | < 10 µM | –
CCOC[C@H](C)N/C(=N/C(=O)c1ccc(Cl)c(F)c1)Nc1cc(C)[nH]n1 [Compound A-180] | < 10 µM | – | > 10 µM
Cc1cc(-c2cc(N/C(=N\C(=O)c3ccc(C(F)(F)F)cc3)NC(C)(C)C)n[nH]2)ccc1F [Compound A-417] | < 10 µM | – | < 10 µM
CC(C)(C)N/C(=N/C(=O)c1cccc(C(F)(F)F)c1)Nc1cc(C(F)(F)F)[nH]n1 [Compound A-77] | < 10 µM | < 10 µM | –
O=C(/N=C(\Nc1cc(-c2ccc(F)cc2)n[nH]1)NC1CCC1)c1ccc(Cl)c(F)c1 [Compound A-222] | < 10 µM | – | < 10 µM
CC(C)(C)N/C(=N/C(=O)c1cccc(C#N)c1)Nc1cc(-c2ccc(Cl)cc2)n[nH]1 [Compound A-308] | < 10 µM | – | < 10 µM
O=C(/N=C(\Nc1cc(-c2ccc(Cl)cc2)n[nH]1)NC1CCCC1)c1cccc(F)c1 [Compound A-385] | < 10 µM | – | < 10 µM
CC(C)CN/C(=N/C(=O)c1cccc([S+](C)[O-])c1)Nc1cc(-c2ccc(F)cc2)n[nH]1 (stereo not drawn) [Compound A-566, (Z)—N-(((3-(4-Fluorophenyl)-1H-pyrazol-5-yl)amino)(isobutylamino)methylene)-3-(methylsulfinyl)benzamide] | < 10 µM | < 10 µM | –
CC(C)(C)NC(=NC(=O)c1ccc(F)c(F)c1)Nc1cc(-c2ccccc2)n[nH]1 [Compound A-435] | < 10 µM | < 10 µM | –

SMILES | IC50 (F1F0-ATPase) | EC50 (Ramos cells; Homo sapiens) | EC50 (Ramos cells)
CC(C)(C)N/C(=N/C(=O)c1ccc(O)cc1)Nc1cc(-c2ccc(F)cc2)n[nH]1 [Compound A-509] | < 10 µM | – | < 10 µM
CCOCCN/C(=N/C(=O)c1ccc(F)c(F)c1)Nc1cc(-c2ccc(F)cc2)n[nH]1 [Compound A-235] | < 10 µM | – | < 10 µM
N#Cc1cccc(C(=O)/N=C(\Nc2cc(-c3ccc(Cl)cc3)n[nH]2)NC2CCCC2)c1 [Compound A-302] | < 10 µM | – | < 10 µM
O=C(/N=C(\Nc1cc(-c2cccc(C(F)(F)F)c2)[nH]n1)NC1CCCC1)c1ccc(C(F)(F)F)cc1 [Compound A-421] | < 10 µM | – | < 10 µM
COc1ccc(-c2cc(N/C(=N\C(=O)c3ccc(C(F)(F)F)cc3)NCC(C)C)[nH]n2)cc1F [Compound A-571] | < 10 µM | – | < 10 µM
CCC(C)N/C(=N/C(=O)c1ccc(F)cc1)Nc1cc(-c2ccc(C)c(F)c2)n[nH]1 (stereo not drawn) [Compound A-203] | < 10 µM | < 10 µM | –
CCC(C)N/C(=N/C(=O)c1ccc(F)c(F)c1)Nc1cc(-c2ccc(Cl)cc2)n[nH]1 (stereo not drawn) [Compound A-225] | < 10 µM | – | < 10 µM
O=C(/N=C(/NCc1ccc(F)c(Cl)c1)Nc1cc(C(F)(F)F)[nH]n1)c1ccc(Cl)c(F)c1 [Compound A-3] | < 10 µM | < 10 µM | –
Cc1ccc(C(=O)/N=C(\Nc2cc(-c3ccc(F)cc3)[nH]n2)NC(C)(C)C)cc1 [Compound A-550] | < 10 µM | – | < 10 µM
O=C(/N=C(/Nc1cc(F)cc(Cl)c1)Nc1cc(-c2ccc(F)cc2)n[nH]1)c1ccc(F)c(F)c1 [Compound A-441] | < 10 µM | – | < 10 µM
O=C(/N=C(\Nc1cc(-c2cccc(Cl)c2)n[nH]1)NC1CCOCC1)c1ccc(Cl)c(F)c1 [Compound A-463] | < 10 µM | – | > 10 µM
O=C(/N=C(\Nc1cc(C(F)(F)F)n[nH]1)NC1CCC1)c1ccc(Cl)c(F)c1 [Compound A-114] | < 10 µM | < 10 µM | –
CC(C)(C)NC(=NC(=O)c1ccc(Cl)c(F)c1)Nc1cc(-c2ccc(F)cc2)n[nH]1 [Compound A-152] | < 10 µM | < 10 µM | –
COC[C@H](C)N/C(=N/C(=O)c1ccc(OC)cc1)Nc1cc(C(F)(F)F)[nH]n1 [Compound A-536] | < 10 µM | – | < 10 µM
O=C(/N=C(/NCc1ccc(F)c(Cl)c1)Nc1cc(C(F)(F)F)[nH]n1)c1ccc(Cl)cc1 [Compound A-31] | < 10 µM | < 10 µM | –
CC(C)(C)N/C(=N/C(=O)c1ccc(C#N)cc1)Nc1cc(C(F)(F)F)[nH]n1 [Compound A-71] | < 10 µM | < 10 µM | –
CC(C)OCCN/C(=N/C(=O)c1ccc(F)cc1)Nc1cc(-c2ccc(F)cc2)n[nH]1 [Compound A-271] | < 10 µM | – | < 10 µM
COCC(C)NC(=NC(=O)c1ccc(OC)cc1F)Nc1cc(-c2ccc(F)cc2)n[nH]1 (stereo not drawn) [Compound A-371] | > 10 µM | – | > 10 µM
O=C(N=C(Nc1cc(C(F)(F)F)n[nH]1)NC1CCC(F)(F)CC1)c1ccc(Cl)c(F)c1 [Compound A-558] | < 10 µM | < 10 µM | –
CC(C)(C)N/C(=N/C(=O)c1ccc(F)c(F)c1)Nc1cc(-c2cc(F)cc(F)c2)[nH]n1 [Compound A-420] | < 10 µM | – | < 10 µM

SMILES | IC50 (F1F0-ATPase) | EC50 (Ramos cells; Homo sapiens) | EC50 (Ramos cells)
CC(C)C(C)N/C(=N/C(=O)c1ccc(C(F)(F)F)cc1)Nc1cc(-c2cc(F)cc(F)c2)n[nH]1 (stereo not drawn) [Compound A-295] | < 10 µM | – | < 10 µM
Cc1cc(C(=O)/N=C(/NCc2ccc(F)cc2Cl)Nc2cc(C(F)(F)F)[nH]n2)ccc1F [Compound A-555] | < 10 µM | – | < 10 µM
COC(=O)c1cc(NC(=NC(=O)c2ccc(C(F)(F)F)cc2)NCc2ccc(F)cc2Cl)[nH]n1 [Compound A-338] | < 10 µM | < 10 µM | –
O=C(/N=C(/NCc1ccc(F)cc1Cl)Nc1cc(C(F)(F)F)[nH]n1)c1ccc(Cl)cc1 [Compound A-30] | < 10 µM | < 10 µM | –
CCOCC(C)NC(=NC(=O)c1cccc(F)c1)Nc1cc(-c2ccc(F)cc2)n[nH]1 (stereo not drawn) [Compound A-256] | < 10 µM | – | < 10 µM
CC(C)(C)N/C(=N/C(=O)c1ccc(F)c(F)c1)Nc1cc(-c2ccc(CO)cc2)[nH]n1 [Compound A-159] | < 10 µM | – | < 10 µM
COCC(C)NC(=NC(=O)c1ccc(F)cc1)Nc1cc(-c2ccc(Cl)cc2)n[nH]1 (stereo not drawn) [Compound A-276] | < 10 µM | – | < 10 µM
CC(N/C(=N/C(=O)c1ccc(F)cc1)Nc1cc(-c2ccc(F)cc2)n[nH]1)C1CCCO1 (stereo not drawn) [Compound A-207] | > 10 µM | – | > 10 µM
Cc1ccc(-c2cc(N/C(=N\C(=O)c3ccc(F)c(F)c3)NCCCOC(C)C)[nH]n2)cc1F [Compound A-322] | < 10 µM | – | < 10 µM
O=C(/N=C(\Nc1cc(C(F)(F)F)n[nH]1)NC1CCC1)c1ccc(F)c(F)c1 [Compound A-99] | < 10 µM | < 10 µM | –
O=C(/N=C(\Nc1cc(-c2ccc(Cl)cc2)n[nH]1)NC1CCCC1)c1ccc(F)cc1 [Compound A-253] | < 10 µM | – | < 10 µM
CC(C)(C)N/C(=N/C(=O)c1ccc(N2CCOCC2)nc1)Nc1cc(-c2ccc(F)cc2)[nH]n1 [Compound A-164] | < 10 µM | – | < 10 µM
O=C(/N=C(/Nc1cc(C(F)(F)F)n[nH]1)NC1CCOC1)c1ccc(F)c(F)c1 (stereo not drawn) [Compound A-103] | < 10 µM | < 10 µM | –
O=C(/N=C(/NCc1ccc(F)cc1Cl)Nc1cc(-c2ccc(F)cc2)n[nH]1)c1ccc(C(F)(F)F)cc1 [Compound A-443] | < 10 µM | – | < 10 µM
COc1cccc(CN/C(=N/C(=O)c2ccc(F)c(C)c2)Nc2cc(-c3ccc(F)cc3)n[nH]2)c1 [Compound A-392] | < 10 µM | – | < 10 µM
CC(C)CN/C(=N/C(=O)c1cccc(C#N)c1)Nc1cc(-c2cc(F)cc(F)c2)n[nH]1 [Compound A-310] | < 10 µM | – | < 10 µM
CCC(C)N/C(=N/C(=O)c1ccc(Cl)c(F)c1)Nc1cc(C)n[nH]1 (stereo not drawn) [Compound A-178] | < 10 µM | < 10 µM | –
COCC(C)NC(=NC(=O)c1cccc(OC)c1)Nc1cc(C(F)(F)F)n[nH]1 (stereo not drawn) [Compound A-537] | < 10 µM | < 10 µM | –
CC(C)CCNC(=NC(=O)c1ccc(Cl)c(F)c1)Nc1cc(-c2cc(F)cc(F)c2)n[nH]1 [Compound A-349] | < 10 µM | < 10 µM | –
CC1(CN/C(=N/C(=O)c2ccc(F)c(F)c2)Nc2cc(-c3ccc(F)cc3)n[nH]2)COC1 [Compound A-200] | < 10 µM | – | > 10 µM

Source: patent US9139532B2, “Pyrazolyl guanidine F1F0-atpase inhibitors and therapeutic uses thereof” (Lycera Corporation, priority 2010, dated 2015)
